Measured values reported in the NIST ThermoML archive (doi:10.1021/je020195l).
± gives the expanded uncertainty stated by the source.

Tests used:
[1] = excess molar enthalpy (molar enthalpy of mixing); xn = mol fraction of the nth substance listed; conditions: Liquid, Flow calorimetry
[2] = activity coefficient (dimensionless); of the first substance listed, at infinite dilution; xn = mol fraction of the nth substance listed; conditions: 101 kPa, Liquid, x1 = 0

Which excess molar enthalpy ([1]; 303.15 K, 1204 kPa, x2 = 0.0623) does the source give for `CCC(C)(OC)OC` [2,2-dimethoxybutane] + C1CCCCC1 here?
The excess molar enthalpy was 0.0257 ± 0.000621 kcal/mol.

And the excess molar enthalpy ([1]; 303.15 K, 1204 kPa, x2 = 0.1229)?
The excess molar enthalpy was 0.0471 ± 0.00108 kcal/mol.

And the excess molar enthalpy ([1]; 303.15 K, 1204 kPa, x2 = 0.1821)?
The excess molar enthalpy was 0.0671 ± 0.00148 kcal/mol.

What about the excess molar enthalpy ([1]; 303.15 K, 1204 kPa, x2 = 0.2397) of the same compound?
The excess molar enthalpy was 0.0844 ± 0.00186 kcal/mol.

And the excess molar enthalpy ([1]; 303.15 K, 1204 kPa, x2 = 0.296)?
Its excess molar enthalpy is 0.0985 ± 0.00215 kcal/mol.

And the excess molar enthalpy ([1]; 303.15 K, 1204 kPa, x2 = 0.3509)?
Its excess molar enthalpy is 0.11 ± 0.00239 kcal/mol.

And the excess molar enthalpy ([1]; 303.15 K, 1204 kPa, x2 = 0.4045)?
The excess molar enthalpy was 0.119 ± 0.00263 kcal/mol.

And the excess molar enthalpy ([1]; 303.15 K, 1204 kPa, x2 = 0.4568)?
Its excess molar enthalpy is 0.125 ± 0.00263 kcal/mol.

What about the excess molar enthalpy ([1]; 303.15 K, 1204 kPa, x2 = 0.5079) of the same compound?
Its excess molar enthalpy is 0.128 ± 0.00287 kcal/mol.

What about the excess molar enthalpy ([1]; 303.15 K, 1204 kPa, x2 = 0.5578) of the same compound?
Its excess molar enthalpy is 0.129 ± 0.00287 kcal/mol.

And the excess molar enthalpy ([1]; 303.15 K, 1204 kPa, x2 = 0.6066)?
Its excess molar enthalpy is 0.128 ± 0.00287 kcal/mol.

And the excess molar enthalpy ([1]; 303.15 K, 1204 kPa, x2 = 0.6542)?
The excess molar enthalpy was 0.123 ± 0.00263 kcal/mol.

What about the excess molar enthalpy ([1]; 303.15 K, 1204 kPa, x2 = 0.7008) of the same compound?
Its excess molar enthalpy is 0.116 ± 0.00263 kcal/mol.

And the excess molar enthalpy ([1]; 303.15 K, 1204 kPa, x2 = 0.7464)?
The excess molar enthalpy was 0.107 ± 0.00234 kcal/mol.

And the excess molar enthalpy ([1]; 303.15 K, 1204 kPa, x2 = 0.791)?
Its excess molar enthalpy is 0.0956 ± 0.00208 kcal/mol.

And the excess molar enthalpy ([1]; 303.15 K, 1204 kPa, x2 = 0.8346)?
Its excess molar enthalpy is 0.0821 ± 0.00182 kcal/mol.

And the excess molar enthalpy ([1]; 303.15 K, 1204 kPa, x2 = 0.8773)?
The excess molar enthalpy was 0.0657 ± 0.00146 kcal/mol.

What about the excess molar enthalpy ([1]; 303.15 K, 1204 kPa, x2 = 0.919) of the same compound?
The excess molar enthalpy was 0.0468 ± 0.00105 kcal/mol.

And the excess molar enthalpy ([1]; 303.15 K, 1204 kPa, x2 = 0.9599)?
The excess molar enthalpy was 0.0259 ± 0.000621 kcal/mol.

Which results are given for `CCOC(C)OCC` [1,1-diethoxyethane] + C1CCCCC1?
excess molar enthalpy ([1]; 323.15 K, 1308 kPa, x2 = 0.0648): 0.0271 ± 0.000645 kcal/mol; excess molar enthalpy ([1]; 323.15 K, 1308 kPa, x2 = 0.1277): 0.0506 ± 0.00115 kcal/mol; excess molar enthalpy ([1]; 323.15 K, 1308 kPa, x2 = 0.1887): 0.0712 ± 0.00158 kcal/mol; excess molar enthalpy ([1]; 323.15 K, 1308 kPa, x2 = 0.2478): 0.0882 ± 0.00194 kcal/mol; excess molar enthalpy ([1]; 323.15 K, 1308 kPa, x2 = 0.3052): 0.103 ± 0.00225 kcal/mol; excess molar enthalpy ([1]; 323.15 K, 1308 kPa, x2 = 0.3609): 0.114 ± 0.00239 kcal/mol; excess molar enthalpy ([1]; 323.15 K, 1308 kPa, x2 = 0.415): 0.123 ± 0.00263 kcal/mol; excess molar enthalpy ([1]; 323.15 K, 1308 kPa, x2 = 0.4676): 0.129 ± 0.00287 kcal/mol; excess molar enthalpy ([1]; 323.15 K, 1308 kPa, x2 = 0.5188): 0.132 ± 0.00287 kcal/mol; excess molar enthalpy ([1]; 323.15 K, 1308 kPa, x2 = 0.5685): 0.133 ± 0.00287 kcal/mol; excess molar enthalpy ([1]; 323.15 K, 1308 kPa, x2 = 0.6169): 0.13 ± 0.00287 kcal/mol; excess molar enthalpy ([1]; 323.15 K, 1308 kPa, x2 = 0.664): 0.126 ± 0.00263 kcal/mol; excess molar enthalpy ([1]; 323.15 K, 1308 kPa, x2 = 0.7099): 0.12 ± 0.00263 kcal/mol; excess molar enthalpy ([1]; 323.15 K, 1308 kPa, x2 = 0.7546): 0.111 ± 0.00239 kcal/mol; excess molar enthalpy ([1]; 323.15 K, 1308 kPa, x2 = 0.7981): 0.0986 ± 0.00215 kcal/mol; excess molar enthalpy ([1]; 323.15 K, 1308 kPa, x2 = 0.8405): 0.0849 ± 0.00186 kcal/mol; excess molar enthalpy ([1]; 323.15 K, 1308 kPa, x2 = 0.8819): 0.0681 ± 0.00151 kcal/mol; excess molar enthalpy ([1]; 323.15 K, 1308 kPa, x2 = 0.9222): 0.0481 ± 0.0011 kcal/mol; excess molar enthalpy ([1]; 323.15 K, 1308 kPa, x2 = 0.9616): 0.0261 ± 0.000621 kcal/mol

Which results are given for `CCOC(C)OCC` [1,1-diethoxyethane] + c1ccccc1?
excess molar enthalpy ([1]; 323.15 K, 1308 kPa, x2 = 0.0778): -0.00197 ± 0.000201 kcal/mol; excess molar enthalpy ([1]; 323.15 K, 1308 kPa, x2 = 0.1511): -0.00364 ± 0.000213 kcal/mol; excess molar enthalpy ([1]; 323.15 K, 1308 kPa, x2 = 0.2204): -0.00483 ± 0.000225 kcal/mol; excess molar enthalpy ([1]; 323.15 K, 1308 kPa, x2 = 0.286): -0.0057 ± 0.000239 kcal/mol; excess molar enthalpy ([1]; 323.15 K, 1308 kPa, x2 = 0.3481): -0.00617 ± 0.000239 kcal/mol; excess molar enthalpy ([1]; 323.15 K, 1308 kPa, x2 = 0.4071): -0.0064 ± 0.000239 kcal/mol; excess molar enthalpy ([1]; 323.15 K, 1308 kPa, x2 = 0.4631): -0.0064 ± 0.000239 kcal/mol; excess molar enthalpy ([1]; 323.15 K, 1308 kPa, x2 = 0.5165): -0.00619 ± 0.000239 kcal/mol; excess molar enthalpy ([1]; 323.15 K, 1308 kPa, x2 = 0.5672): -0.00577 ± 0.000239 kcal/mol; excess molar enthalpy ([1]; 323.15 K, 1308 kPa, x2 = 0.6157): -0.00527 ± 0.000232 kcal/mol; excess molar enthalpy ([1]; 323.15 K, 1308 kPa, x2 = 0.6619): -0.0045 ± 0.00022 kcal/mol; excess molar enthalpy ([1]; 323.15 K, 1308 kPa, x2 = 0.7061): -0.00365 ± 0.000213 kcal/mol; excess molar enthalpy ([1]; 323.15 K, 1308 kPa, x2 = 0.7484): -0.00277 ± 0.000206 kcal/mol; excess molar enthalpy ([1]; 323.15 K, 1308 kPa, x2 = 0.7889): -0.00181 ± 0.000198 kcal/mol; excess molar enthalpy ([1]; 323.15 K, 1308 kPa, x2 = 0.8278): -0.000703 ± 0.000191 kcal/mol; excess molar enthalpy ([1]; 323.15 K, 1308 kPa, x2 = 0.865): 7.17e-06 kcal/mol; excess molar enthalpy ([1]; 323.15 K, 1308 kPa, x2 = 0.9008): 0.000676 ± 0.000191 kcal/mol; excess molar enthalpy ([1]; 323.15 K, 1308 kPa, x2 = 0.9351): 0.00116 ± 0.000194 kcal/mol; excess molar enthalpy ([1]; 323.15 K, 1308 kPa, x2 = 0.9682): 0.00114 ± 0.000194 kcal/mol

Which activity coefficient ([2]; 293.21 K) does the source give for `c1ccccc1` [benzene] + CCOC(C)OCC here?
The activity coefficient was 0.64 ± 0.05.

And the activity coefficient ([2]; 303.16 K)?
Its activity coefficient is 0.58 ± 0.05.

What about the activity coefficient ([2]; 313.11 K) of the same compound?
Its activity coefficient is 0.56 ± 0.05.

What about the activity coefficient ([2]; 323.13 K) of the same compound?
The activity coefficient was 0.62 ± 0.05.

For `C1CCCCC1` [cyclohexane] + CCOC(C)OCC, which activity coefficient ([2]; 293.08 K) is on record?
Its activity coefficient is 1.76 ± 0.13.

What about the activity coefficient ([2]; 303.18 K) of the same compound?
The activity coefficient was 1.72 ± 0.12.

And the activity coefficient ([2]; 313.12 K)?
The activity coefficient was 1.67 ± 0.12.

And the activity coefficient ([2]; 323.14 K)?
The activity coefficient was 1.64 ± 0.12.

Which excess molar enthalpy ([1]; 303.15 K, 1342 kPa, x2 = 0.0747) does the source give for `CCC(C)(OC)OC` [2,2-dimethoxybutane] + c1ccccc1 here?
The excess molar enthalpy was 0.00416 ± 0.000217 kcal/mol.

And the excess molar enthalpy ([1]; 303.15 K, 1342 kPa, x2 = 0.1456)?
Its excess molar enthalpy is 0.00676 ± 0.000263 kcal/mol.

What about the excess molar enthalpy ([1]; 303.15 K, 1342 kPa, x2 = 0.213) of the same compound?
The excess molar enthalpy was 0.00906 ± 0.000287 kcal/mol.

What about the excess molar enthalpy ([1]; 303.15 K, 1342 kPa, x2 = 0.2772) of the same compound?
The excess molar enthalpy was 0.0109 ± 0.000335 kcal/mol.

What about the excess molar enthalpy ([1]; 303.15 K, 1342 kPa, x2 = 0.3383) of the same compound?
Its excess molar enthalpy is 0.0128 ± 0.000359 kcal/mol.

And the excess molar enthalpy ([1]; 303.15 K, 1342 kPa, x2 = 0.3966)?
The excess molar enthalpy was 0.0141 ± 0.000382 kcal/mol.

What about the excess molar enthalpy ([1]; 303.15 K, 1342 kPa, x2 = 0.4523) of the same compound?
Its excess molar enthalpy is 0.0151 ± 0.000406 kcal/mol.

What about the excess molar enthalpy ([1]; 303.15 K, 1342 kPa, x2 = 0.5056) of the same compound?
Its excess molar enthalpy is 0.0159 ± 0.00043 kcal/mol.

What about the excess molar enthalpy ([1]; 303.15 K, 1342 kPa, x2 = 0.5565) of the same compound?
Its excess molar enthalpy is 0.0165 ± 0.00043 kcal/mol.

What about the excess molar enthalpy ([1]; 303.15 K, 1342 kPa, x2 = 0.6053) of the same compound?
Its excess molar enthalpy is 0.0167 ± 0.00043 kcal/mol.

And the excess molar enthalpy ([1]; 303.15 K, 1342 kPa, x2 = 0.6521)?
Its excess molar enthalpy is 0.0165 ± 0.00043 kcal/mol.

And the excess molar enthalpy ([1]; 303.15 K, 1342 kPa, x2 = 0.697)?
Its excess molar enthalpy is 0.0162 ± 0.00043 kcal/mol.

And the excess molar enthalpy ([1]; 303.15 K, 1342 kPa, x2 = 0.7402)?
The excess molar enthalpy was 0.0155 ± 0.000406 kcal/mol.

And the excess molar enthalpy ([1]; 303.15 K, 1342 kPa, x2 = 0.7816)?
The excess molar enthalpy was 0.0145 ± 0.000406 kcal/mol.

What about the excess molar enthalpy ([1]; 303.15 K, 1342 kPa, x2 = 0.8215) of the same compound?
Its excess molar enthalpy is 0.0131 ± 0.000359 kcal/mol.

And the excess molar enthalpy ([1]; 303.15 K, 1342 kPa, x2 = 0.8599)?
The excess molar enthalpy was 0.0112 ± 0.000335 kcal/mol.

What about the excess molar enthalpy ([1]; 303.15 K, 1342 kPa, x2 = 0.8968) of the same compound?
The excess molar enthalpy was 0.00927 ± 0.000311 kcal/mol.

And the excess molar enthalpy ([1]; 303.15 K, 1342 kPa, x2 = 0.9325)?
Its excess molar enthalpy is 0.00651 ± 0.000239 kcal/mol.
